The values that follow come from ChEMBL document CHEMBL3525963, “Tissue distribution and elimination of [14C]apixaban in rats” (Drug Metab Dispos, 2011).

The nature of series [1]: Drug level in feces of Sprague-Dawley rat treated with [14C]apixaban at 30 mg/kg, po assessed as compound level by HPLC method. Conditions: in vivo.
A short description of series [2]: Drug level in urine of Sprague-Dawley rat treated with [14C]apixaban at 30 mg/kg, po assessed as compound level by HPLC method. Conditions: in vivo.

As to `NC(=O)c1nn(-c2ccc(O)cc2)c2c1CCN(c1ccc(N3CCCC[14C]3=O)cc1)C2=O`, the Compound recovery in series [1] was 13%; in series [2], 2%.
